Reference: publication PMC13010972 (Chemical communications (Cambridge, England), 2026)

What was measured:
[1] = system: genes linked to the PhoPQ TCS; settings: cited from earlier work
[2] = system: polymyxin-resistant S. enterica strain EG9492; settings: co-treatment of resistant strain EG9492s; cited from earlier work
S. enterica = assay: checkerboard assay with colistin; type: cell-based, Salmonella enterica; settings: R-1 with colistin; FIC < 0.5 indicates synergy

## Nc1nc2ccc(OC(F)(F)F)cc2s1 [R-1, riluzole]
[1]
  expression of genes linked to the PhoPQ TCS: downregulation
[2]
  change in the colistin MIC: ~ 8 fold
S. enterica
  fractional inhibitory concentration (FIC) value: 0.28
